From patent US20220323429A1, “PIMAVANSERIN FOR TREATING NEURODEGENERATIVE DISEASES” (ACADIA Pharmaceuticals Inc., priority 2019, published 2022)

Tests used:
[1] = In-use stability impurity analysis (HPLC) of pimavanserin 34 mg capsule contents in vehicles; type: physicochemical; conditions: for Impurity D / Impurity Unknown RRT 0.90 / Impurity Unknown RRT 0.99 / Impurity Unknown RRT 1.10 / Total Imp.: ambient
Experimental: (§1) Analytical HPLC Stability Study experiments (Example 1) were performed on Agilent 1200 Series, or equivalent; Waters XBridge C18 column, 5 μm 150×4.6 mm; mobile phase: Solvent A: 50 mM ammonium bicarbonate, pH 8.0; Solvent B: acetonitrile/methanol, 80:20 (v/v); Flow rate: 1 mL/min; Inj. Volume 20 μL; Autosampler Temp. 5° C.; column temperature: 40° C., detection UV at 210 nm; sample concentration (as free base) assay: 0.068 mg/mL, impurity: 0.68 mg/mL; standard concentration (as free base) 0.068 mg/mL; PLOQ Std. 0.05% of 0.68 mg/mL; SST solution, 1% of 0.68 mg/mL (impurities A, C, D, E, F, and G); diluent for standards 80/20 (v/v) ethanol/water; diluent for samples, ethanol; run time 40 min; gradient method: 0 min mobile phase A (90%) and mobile phase B (10%) to 30 min mobile phase A (0%), and mobile phase B (100%); then 30.1 min to 40 min mobile phase A (90%), mobile phase B (10%).
Samples for the assessment of the degradation products stability from solutions or mixtures of pimavanserin in vehicles were prepared as follows. Four samples (n=4) were prepared for each vehicle as follows.
(§2) For each sample, one capsule was weighed, and the content of each capsule was dropped into a 50 mL volumetric flask and the empty capsule shell was weighed and discarded. The specified amount of each vehicle was added as specified in Table 3, below.
(§3) The flasks were gently swirled to ensure the capsule contents were visually incorporated with the vehicle. The flasks were kept on the bench at ambient temperature for each time point: 2, 4, and 24 hours. Time 0 samples were processed immediately. At the specified time point a stir bar and approximately 45 mL of diluent were added to the flask. The solution was stirred vigorously for 2 hours, and the flask was left on the bench overnight. The next day the flasks were sonicated for approximately 30 minutes. The stir bar was removed and rinsed carefully with diluent into the flask, and the flask was diluted to volume with diluent and mixed well by inversion. An aliquot of each solution was centrifuged for 5 minutes at 10000 rpm. The supernatant was transferred to a HPLC vial, and injected for analysis.

[2] = Assay from diluted impurity samples (mass balance), in-use stability; type: physicochemical; conditions: for Assay (%) from diluted impurity sample: ambient; for Absolute Difference from Time 0 (%): diluted impurity sample
Experimental: as §1, §2, §3
Samples were prepared by transferring the stock volume using a volumetric pipet into a 20 mL volumetric flask, diluted to volume with diluent, and mixed well by inversion. An aliquot of each solution was centrifuged for 5 minutes at 10000 rpm. The supernatant was transferred to a HPLC vial and injected for analysis.

- Impurity D ([1]; Ensure 5 mL, T = 0): 0.22 % w/w
- Impurity Unknown RRT 0.90 ([1]; Ensure 5 mL, T = 0): 0.08 % w/w
- Impurity Unknown RRT 0.99 ([1]; Ensure 5 mL, T = 0): 0.09 % w/w
- Impurity Unknown RRT 1.10 ([1]; Ensure 5 mL, T = 0): 0.06 % w/w
- Total Imp. ([1]; Ensure 5 mL, T = 0): 0.45 % w/w
- Impurity D ([1]; Ensure 5 mL, T = 2 h): 0.20 % w/w
- Impurity Unknown RRT 0.90 ([1]; Ensure 5 mL, T = 2 h): 0.08 % w/w
- Impurity Unknown RRT 0.99 ([1]; Ensure 5 mL, T = 2 h): 0.10 % w/w
- Impurity Unknown RRT 1.10 ([1]; Ensure 5 mL, T = 2 h): 0.05 % w/w
- Total Imp. ([1]; Ensure 5 mL, T = 2 h): 0.43 % w/w
- Impurity D ([1]; Ensure 5 mL, T = 4 h): 0.23 % w/w
- Impurity Unknown RRT 0.90 ([1]; Ensure 5 mL, T = 4 h): 0.08 % w/w
- Impurity Unknown RRT 0.99 ([1]; Ensure 5 mL, T = 4 h): 0.09 % w/w
- Impurity Unknown RRT 1.10 ([1]; Ensure 5 mL, T = 4 h): 0.06 % w/w
- Total Imp. ([1]; Ensure 5 mL, T = 4 h): 0.46 % w/w
- Impurity D ([1]; Ensure 5 mL, T = 24 h): 0.23 % w/w
- Impurity Unknown RRT 0.90 ([1]; Ensure 5 mL, T = 24 h): 0.07 % w/w
- Impurity Unknown RRT 0.99 ([1]; Ensure 5 mL, T = 24 h): 0.10 % w/w
- Impurity Unknown RRT 1.10 ([1]; Ensure 5 mL, T = 24 h): 0.06 % w/w
- Total Imp. ([1]; Ensure 5 mL, T = 24 h): 0.46 % w/w
- change in impurity profile ([1]; any vehicle, over 24 hours at ambient room temperature): no significant change
- Impurity D ([1]; applesauce 5 g, T = 0): 0.19 % w/w
- Impurity Unknown RRT 0.99 ([1]; applesauce 5 g, T = 0): 0.09 % w/w
- Total Imp. ([1]; applesauce 5 g, T = 0): 0.28 % w/w
- Impurity D ([1]; applesauce 5 g, T = 2 h): 0.21 % w/w
- Impurity Unknown RRT 0.99 ([1]; applesauce 5 g, T = 2 h): 0.10 % w/w
- Total Imp. ([1]; applesauce 5 g, T = 2 h): 0.31 % w/w
- Impurity D ([1]; applesauce 5 g, T = 4 h): 0.22 % w/w
- Impurity Unknown RRT 0.99 ([1]; applesauce 5 g, T = 4 h): 0.10 % w/w
- Total Imp. ([1]; applesauce 5 g, T = 4 h): 0.32 % w/w
- Impurity D ([1]; applesauce 5 g, T = 24 h): 0.22 % w/w
- Impurity Unknown RRT 0.99 ([1]; applesauce 5 g, T = 24 h): 0.09 % w/w
- Total Imp. ([1]; applesauce 5 g, T = 24 h): 0.31 % w/w
- individual and total impurities across timepoints ([1]; each vehicle, 0-24 h): consistent between all timepoints
- Impurity D ([1]; orange juice 5 mL, T = 0): 0.17 % w/w
- Impurity Unknown RRT 0.99 ([1]; orange juice 5 mL, T = 0): 0.09 % w/w
- Total Imp. ([1]; orange juice 5 mL, T = 0): 0.26 % w/w
- Impurity D ([1]; orange juice 5 mL, T = 2 h): 0.17 % w/w
- Impurity Unknown RRT 0.99 ([1]; orange juice 5 mL, T = 2 h): 0.09 % w/w
- Total Imp. ([1]; orange juice 5 mL, T = 2 h): 0.26 % w/w
- Impurity D ([1]; orange juice 5 mL, T = 4 h): 0.17 % w/w
- Impurity Unknown RRT 0.99 ([1]; orange juice 5 mL, T = 4 h): 0.09 % w/w
- Total Imp. ([1]; orange juice 5 mL, T = 4 h): 0.26 % w/w
- Impurity D ([1]; orange juice 5 mL, T = 24 h): 0.17 % w/w
- Impurity Unknown RRT 0.99 ([1]; orange juice 5 mL, T = 24 h): 0.09 % w/w
- Total Imp. ([1]; orange juice 5 mL, T = 24 h): 0.26 % w/w
- additional unknown impurities ([1]; two impurities, samples extracted from vanilla Ensure, time 0): < 0.1%
- Impurity D ([1]; water 5 mL, T = 0): 0.23 % w/w
- Impurity Unknown RRT 0.99 ([1]; water 5 mL, T = 0): 0.10 % w/w
- Total Imp. ([1]; water 5 mL, T = 0): 0.33 % w/w
- Impurity D ([1]; water 5 mL, T = 2 h): 0.24 % w/w
- Impurity Unknown RRT 0.99 ([1]; water 5 mL, T = 2 h): 0.10 % w/w
- Total Imp. ([1]; water 5 mL, T = 2 h): 0.34 % w/w
- Impurity D ([1]; water 5 mL, T = 4 h): 0.23 % w/w
- Impurity Unknown RRT 0.99 ([1]; water 5 mL, T = 4 h): 0.10 % w/w
- Total Imp. ([1]; water 5 mL, T = 4 h): 0.33 % w/w
- Impurity D ([1]; water 5 mL, T = 24 h): 0.25 % w/w
- Impurity Unknown RRT 0.99 ([1]; water 5 mL, T = 24 h): 0.10 % w/w
- Total Imp. ([1]; water 5 mL, T = 24 h): 0.35 % w/w
- Assay (%) from diluted impurity sample ([2]; Ensure 5 mL, T = 0): 97.1%
- Assay (%) from diluted impurity sample ([2]; Ensure 5 mL, T = 2 h): 94.6%
- Assay (%) from diluted impurity sample ([2]; Ensure 5 mL, T = 4 h): 97.9%
- Assay (%) from diluted impurity sample ([2]; Ensure 5 mL, T = 24 h): 97.3%
- Absolute Difference from Time 0 (%) ([2]; Ensure, T = 0): 2.9%
- Absolute Difference from Time 0 (%) ([2]; Ensure, T = 2 h): 5.4%
- Absolute Difference from Time 0 (%) ([2]; Ensure, T = 4 h): 2.1%
- Absolute Difference from Time 0 (%) ([2]; Ensure, T = 24 h): 2.7%
- Assay (%) from diluted impurity sample ([2]; applesauce 5 g, T = 0): 97.5%
- Assay (%) from diluted impurity sample ([2]; applesauce 5 g, T = 2 h): 99.4%
- Assay (%) from diluted impurity sample ([2]; applesauce 5 g, T = 4 h): 104.1%
- Assay (%) from diluted impurity sample ([2]; applesauce 5 g, T = 24 h): 99.5%
- Absolute Difference from Time 0 (%) ([2]; applesauce, T = 0): 4.4%
- Absolute Difference from Time 0 (%) ([2]; applesauce, T = 2 h): 2.5%
- Absolute Difference from Time 0 (%) ([2]; applesauce, T = 4 h): 2.2%
- Absolute Difference from Time 0 (%) ([2]; applesauce, T = 24 h): 2.4%
- assay results difference from time 0 ([2]; diluted impurity samples, all vehicles and times): ≤ 5%
- Assay (%) from diluted impurity sample ([2]; orange juice 5 mL, T = 0): 97.7%
- Assay (%) from diluted impurity sample ([2]; orange juice 5 mL, T = 2 h): 97.5%
- Assay (%) from diluted impurity sample ([2]; orange juice 5 mL, T = 4 h): 96.4%
- Assay (%) from diluted impurity sample ([2]; orange juice 5 mL, T = 24 h): 99.2%
- Absolute Difference from Time 0 (%) ([2]; orange juice, T = 0): 2.6%
- Absolute Difference from Time 0 (%) ([2]; orange juice, T = 2 h): 2.8%
- Absolute Difference from Time 0 (%) ([2]; orange juice, T = 4 h): 3.9%
- Absolute Difference from Time 0 (%) ([2]; orange juice, T = 24 h): 1.1%
- Assay (%) from diluted impurity sample ([2]; water 5 mL, T = 0): 95.6%
- Assay (%) from diluted impurity sample ([2]; water 5 mL, T = 2 h): 98.2%
- Assay (%) from diluted impurity sample ([2]; water 5 mL, T = 4 h): 97.1%
- Assay (%) from diluted impurity sample ([2]; water 5 mL, T = 24 h): 97.5%
- Absolute Difference from Time 0 (%) ([2]; water, T = 0): 3.3%
- Absolute Difference from Time 0 (%) ([2]; water, T = 2 h): 0.7%
- Absolute Difference from Time 0 (%) ([2]; water, T = 4 h): 1.8%
- Absolute Difference from Time 0 (%) ([2]; water, T = 24 h): 1.4%
SMILES: CC(C)COc1ccc(CNC(=O)N(Cc2ccc(F)cc2)C2CCN(C)CC2)cc1 [Pimavanserin, N-(4-Fluorophenylmethyl)-N-(1-methylpiperidin-4-yl)-N′-(4-(2-methylpropyloxy)phenylmethyl)carbamide]
